# Read-outs that look alike come from different tables or passages of the source.
# Experiments:
# [1] = system: Salmonella Enteritidis, ATCC 13076; experiment: Microtiter plate assay, growth inhibition; assay type: cell-based; conditions: Salmonella enterica, read-out: level needed to inhibit the growth (MIC)
# Procedure: (§1) Stock cultures of Escherichia coli 413-1, ATCC 25922, Salmonella Enteritidis, ATCC 13076, Bacillus subtilis PB6 (Kemin Industries) and Lactobacillus johnsonii D115 (Kemin Industries) were cultured from agar plates held at 4° C. and inoculated into tubes of either Tryptic Soy Broth (TSB) or de Man, Rogosa and Sharpe (MRS) broth. The bacteria were incubated aerobically or anaerobically as appropriate at 37° C. for 20-22 h. All microbial cultures used in this work are strains maintained in an in-house culture collection.
# (§2) Stock solutions of 1000 ppm each of carvacrol and thymol standards were prepared in sterile TSB to which 0.1% agar was added for stabilization of the oil:water emulsion (Rasooli et al., 2007; Burt, S. and R. Reinders. 2003. Antibacterial activity of selected plant essential oils against Escherichia coli O157:H7. Letters Appl. Microbiol. 36:162-167). Subsequent dilutions and/or combinations of the standard stock solutions were prepared in TSB to achieve the targeted inclusion level of each molecule.
# (§3) Stock solutions of 1000 ppm were made of each of the HC and HT extracted oils in sterile TSB or MRS broth to which 0.1% agar was added. Subsequent dilutions and/or combinations of the extracted oil stock solutions were prepared in TSB or MRS to achieve the targeted inclusion level of each molecule.
# (§4) The efficacy of carvacrol and thymol in the inhibition of microbial growth was evaluated in a microtiter plate assay measuring the optical density at 620 nm using an Optimax microtiter plate reader (Molecular Devices, Sunnyvale, Calif.). Plates were read kinetically (aerobic organisms) or endpoint (anaerobic organisms) over 20-24 h while maintaining temperature at 35° C. All results reflect the average optical density measurements of four microtiter wells. A 100 uL aliquot of a test organism (1.0E+06 cfu/mL) in sterile saline and a 100 μL aliquot of experimental treatment were dispensed into individual microtiter plate wells. Treatments prepared in TSB were used for E. coli, S. Enteritidis and PB6 while treatments prepared in MRS broth were used for L. johnsonii D115. Positive controls consisted of 100 μL of test organism in sterile saline and 100 μL of sterile TSB or MRS. Negative controls were made of 100 μL of sterile TSB or MRS and 100 μL of sterile saline (no organisms).
# (§5) The inhibitory levels of carvacrol and thymol against selected microorganisms were evaluated through several formulation matrices designed to assess the individual molecules as well as combinations of the molecules. Initially, thirteen formulations were prepared according to the incomplete 4×4 matrix design in Table 1 using 0, 125, 250 and 500 ppm each of carvacrol standard and thymol standard to evaluate the inhibitory activity toward selected microorganisms. […]
# [2] = system: Escherichia coli 413-1, ATCC 25922; experiment: Microtiter plate assay, growth inhibition; assay type: cell-based
# Procedure: as §1, §2, §3, §4, §5
Compound,MIC [1] [µg/mL],"MIC ([2]; ATCC25922, read-out: level needed to inhibit the growth (MIC)) [µg/mL]","MIC ([1]; microtiter plate, OD 620 nm, 20-24 h, 35° C.) [µg/mL]","MIC ([2]; ATCC25922, microtiter plate, OD 620 nm, 20-24 h, 35° C., read-out: level needed to inhibit the growth (MIC)) [µg/mL]"
Cc1ccc(C(C)C)cc1O [carvacrol],125 to 250,125 to 250,–,–
Cc1ccc(C(C)C)c(O)c1 [thymol],–,–,125 to 250,125 to 250
